Broadly, the IC50 is the concentration at which inhibition is half-maximal. As a reminder, the Ki is a measure of affinity in units of concentration, obtained from inhibition or displacement.

The target in experiment [1] is T1, Alpha-2C adrenergic receptor (Homo sapiens, UniProt P18825).
T1 sequence (P18825 whole entry): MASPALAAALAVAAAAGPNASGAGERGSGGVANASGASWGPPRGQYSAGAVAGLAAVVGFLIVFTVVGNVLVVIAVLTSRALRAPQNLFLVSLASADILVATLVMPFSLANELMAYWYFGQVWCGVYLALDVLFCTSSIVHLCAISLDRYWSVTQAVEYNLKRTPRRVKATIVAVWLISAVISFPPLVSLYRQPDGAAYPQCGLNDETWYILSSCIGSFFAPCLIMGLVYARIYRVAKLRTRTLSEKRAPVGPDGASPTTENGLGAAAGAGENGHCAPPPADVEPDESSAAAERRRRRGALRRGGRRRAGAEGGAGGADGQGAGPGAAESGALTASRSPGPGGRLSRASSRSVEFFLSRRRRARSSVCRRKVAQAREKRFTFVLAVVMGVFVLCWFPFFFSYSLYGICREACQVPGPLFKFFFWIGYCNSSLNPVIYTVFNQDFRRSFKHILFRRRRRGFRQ
The experiment in a line: DRUGMATRIX: Adrenergic Alpha-2C radioligand binding (ligand: [3H] MK-912). As to conditions: sf9. It is filed as cell membranes, Sf9, Membrane.

The target in the next experiment is T2, Calcitonin receptor (Homo sapiens, UniProt P30988). Further: in other assays of this panel Not Active means under 50% inhibition at 10 µM.
T2 sequence (P30988 whole entry): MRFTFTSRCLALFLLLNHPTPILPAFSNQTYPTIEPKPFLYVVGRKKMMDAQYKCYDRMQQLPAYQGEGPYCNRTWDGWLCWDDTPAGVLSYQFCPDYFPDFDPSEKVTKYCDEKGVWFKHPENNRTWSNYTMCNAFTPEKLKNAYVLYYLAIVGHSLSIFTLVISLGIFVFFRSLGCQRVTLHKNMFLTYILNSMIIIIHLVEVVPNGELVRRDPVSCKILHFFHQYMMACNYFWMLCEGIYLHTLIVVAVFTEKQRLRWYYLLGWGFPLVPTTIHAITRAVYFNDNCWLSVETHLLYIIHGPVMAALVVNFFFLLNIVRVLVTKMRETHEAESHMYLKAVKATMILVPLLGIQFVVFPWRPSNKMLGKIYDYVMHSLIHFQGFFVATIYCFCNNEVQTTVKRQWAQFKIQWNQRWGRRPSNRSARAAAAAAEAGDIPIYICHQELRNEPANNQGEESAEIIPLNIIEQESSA
The experiment is classed as cell membranes, Membrane. As to conditions: t47d.

Another experiment addresses Adenosine receptor A2a (Homo sapiens, UniProt P29274). The experiment in a line: DRUGMATRIX: Adenosine A2A radioligand binding (ligand: […]). It is filed as cell membranes, HEK293, Membrane. As to conditions: Not Active = under 50% inhibition at 10 µM.
A short description of experiment [2]: DRUGMATRIX: Imidazoline I2, Central radioligand binding (ligand: [3H] Idazoxan). The experiment is classed as cell membranes, Rattus norvegicus, Wistar, Cerebral cortex, Membrane. Conditions: Not Active = under 50% inhibition at 10 µM.
Experiment [3] concerns the target T3, Cholecystokinin receptor type A (Homo sapiens, UniProt P32238). Further: in other assays of this panel Not Active means under 50% inhibition at 10 µM.
T3 sequence (P32238 whole entry): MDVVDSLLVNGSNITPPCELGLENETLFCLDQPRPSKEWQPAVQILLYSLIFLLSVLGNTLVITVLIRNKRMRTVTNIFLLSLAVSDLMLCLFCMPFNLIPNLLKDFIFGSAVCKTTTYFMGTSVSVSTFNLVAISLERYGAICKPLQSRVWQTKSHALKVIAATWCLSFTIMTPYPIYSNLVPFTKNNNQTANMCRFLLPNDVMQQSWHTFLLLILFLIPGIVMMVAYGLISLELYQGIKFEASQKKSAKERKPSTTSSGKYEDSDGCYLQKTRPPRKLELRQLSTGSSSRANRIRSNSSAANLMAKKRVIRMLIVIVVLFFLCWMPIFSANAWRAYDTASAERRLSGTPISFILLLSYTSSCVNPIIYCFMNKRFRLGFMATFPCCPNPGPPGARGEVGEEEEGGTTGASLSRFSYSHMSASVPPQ
It is filed as cell membranes, Membrane. Conditions: 1321-n1.

A further experiment deals with Melanocortin receptor 3 (Homo sapiens, UniProt P41968). The experiment is classed as cell membranes, Membrane. Conditions: hek293.
Sequence of Melanocortin receptor 3 (P41968 whole entry): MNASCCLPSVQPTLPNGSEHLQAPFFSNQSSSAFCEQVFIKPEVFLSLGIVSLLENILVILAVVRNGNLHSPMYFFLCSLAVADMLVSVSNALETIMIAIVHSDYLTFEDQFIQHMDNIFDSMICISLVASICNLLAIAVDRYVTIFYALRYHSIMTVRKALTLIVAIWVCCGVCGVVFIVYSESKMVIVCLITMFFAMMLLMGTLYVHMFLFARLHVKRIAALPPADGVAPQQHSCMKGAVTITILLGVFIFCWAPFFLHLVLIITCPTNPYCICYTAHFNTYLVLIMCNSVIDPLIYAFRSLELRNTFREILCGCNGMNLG
Experiment [4] deals with T4, Neuropeptide Y receptor type 1 (Homo sapiens, UniProt P25929).
T4 sequence (P25929 whole entry): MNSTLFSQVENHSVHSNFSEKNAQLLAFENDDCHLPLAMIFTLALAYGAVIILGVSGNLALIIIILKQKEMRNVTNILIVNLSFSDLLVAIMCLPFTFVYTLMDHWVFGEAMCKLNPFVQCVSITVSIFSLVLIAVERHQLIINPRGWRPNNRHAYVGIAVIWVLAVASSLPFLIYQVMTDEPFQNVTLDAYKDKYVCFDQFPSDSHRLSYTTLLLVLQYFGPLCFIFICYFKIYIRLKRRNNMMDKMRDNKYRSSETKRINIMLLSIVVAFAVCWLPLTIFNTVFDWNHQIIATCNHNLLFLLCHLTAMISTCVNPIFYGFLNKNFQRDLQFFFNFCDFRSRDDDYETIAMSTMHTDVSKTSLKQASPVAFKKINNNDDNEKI
The experiment is classed as cell membranes, Membrane. Conditions: sk-n-mc.

The target of a further experiment is Carbonic anhydrase 2 (Homo sapiens, UniProt P00918). Kind of experiment: DRUGMATRIX: Carbonic Anhydrase II enzyme inhibition (substrate: 4-Nitrophenyl acetate (4-NPA)). The experiment is classed as tissue-based, Erythrocyte. Conditions: erythrocyte; Not Active = under 50% inhibition at 10 µM.

Sequence of Adenosine receptor A2a (P29274 whole entry): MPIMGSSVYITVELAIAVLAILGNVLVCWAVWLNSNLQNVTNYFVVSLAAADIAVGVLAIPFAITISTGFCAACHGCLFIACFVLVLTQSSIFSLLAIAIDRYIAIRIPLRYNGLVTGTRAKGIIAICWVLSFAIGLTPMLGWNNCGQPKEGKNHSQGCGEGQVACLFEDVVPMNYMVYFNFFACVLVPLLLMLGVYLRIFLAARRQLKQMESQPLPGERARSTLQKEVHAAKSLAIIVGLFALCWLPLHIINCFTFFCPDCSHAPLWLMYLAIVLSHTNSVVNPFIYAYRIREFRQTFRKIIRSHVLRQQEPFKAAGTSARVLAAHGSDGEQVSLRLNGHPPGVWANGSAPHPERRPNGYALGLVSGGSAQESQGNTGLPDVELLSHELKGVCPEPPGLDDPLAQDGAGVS

`CC(C(=O)O)c1cccc(C(=O)c2ccccc2)c1` (stereo unspecified) [KETOPROFEN]: the IC50 result (in experiment [1]; on Calcitonin receptor; at Adenosine receptor A2a (hek293); in experiment [2]; in experiment [3]; at Melanocortin receptor 3) was “Not Active” throughout. In addition, the IC50 result (in experiment [4]; against Carbonic anhydrase 2) was “Not Active” throughout. In addition, in experiment [2], the Ki entry is given as “Not Active”.
`Nc1ccn([C@@H]2CS[C@H](CO)O2)c(=O)n1` [LAMIVUDINE]: the IC50 entry (in experiment [1]; at Calcitonin receptor; on Adenosine receptor A2a (hek293); in experiment [2]; in experiment [3]; on Melanocortin receptor 3) was “Not Active” throughout. Also, the IC50 entry (in experiment [4]; on Carbonic anhydrase 2) was “Not Active” in each case. The Ki entry in experiment [2] is listed as “Not Active”.
Consider `O=S(=O)([O-])CCS.[Na+]` [MESNA], for which the IC50 entry (in experiment [1]; on Calcitonin receptor; at Adenosine receptor A2a (hek293); in experiment [2]; in experiment [3]; against Melanocortin receptor 3) was “Not Active” throughout. The IC50 entry (in experiment [4]; against Carbonic anhydrase 2) was “Not Active” throughout. Besides, the Ki result in experiment [2] is given as “Not Active”.
For the compound `C#C[C@]1(O)CC[C@H]2[C@@H]3CCc4cc(OC)ccc4[C@H]3CC[C@@]21C` [MESTRANOL], the IC50 result (in experiment [1]; on Calcitonin receptor; at Adenosine receptor A2a (hek293); in experiment [2]; in experiment [3]; at Melanocortin receptor 3) was “Not Active” each time. Moreover, the IC50 result (in experiment [4]; against Carbonic anhydrase 2) was “Not Active” in each case. In experiment [2], the Ki entry is listed as “Not Active”.
Consider `CC(=O)Nc1cccc(O)c1` [METACETAMOL], for which the IC50 entry (in experiment [1]; on Calcitonin receptor; at Adenosine receptor A2a (hek293); in experiment [2]; in experiment [3]; against Melanocortin receptor 3) was “Not Active” throughout. In addition, the IC50 entry (in experiment [4]; against Carbonic anhydrase 2) was “Not Active” in each case. Besides, the Ki entry in experiment [2] is listed as “Not Active”.
On to `Cc1ncc([N+](=O)[O-])n1CCO` [METRONIDAZOLE], for which the IC50 entry (in experiment [1]; on Calcitonin receptor; at Adenosine receptor A2a (hek293); in experiment [2]; in experiment [3]; against Melanocortin receptor 3) was “Not Active” each time. For the same compound, the IC50 result (in experiment [4]; against Carbonic anhydrase 2) was “Not Active” in each case. In experiment [2], the Ki result is recorded as “Not Active”.
Regarding `CC(C)(C(=O)c1cccnc1)c1cccnc1` [METYRAPONE], the IC50 result (in experiment [1]; on Calcitonin receptor; on Adenosine receptor A2a (hek293); in experiment [2]; in experiment [3]; on Melanocortin receptor 3) was “Not Active” in each case. The IC50 result (in experiment [4]; against Carbonic anhydrase 2) was “Not Active” each time. The Ki result in experiment [2] was “Not Active”.
Take `Oc1ccc(OCc2ccccc2)cc1` [MONOBENZONE]: the IC50 result (in experiment [1]; on Calcitonin receptor; at Adenosine receptor A2a (hek293); in experiment [2]; in experiment [3]; at Melanocortin receptor 3) was “Not Active” throughout. For the same compound, the IC50 entry (in experiment [4]; against Carbonic anhydrase 2) was “Not Active” in each case. Further, the Ki result in experiment [2] is reported as “Not Active”.
Turning to `CC(C)(Oc1ccc(C2CCCc3ccccc32)cc1)C(=O)O` (stereo unspecified) [NAFENOPIN], the IC50 entry (in experiment [1]; at Calcitonin receptor; on Adenosine receptor A2a (hek293); in experiment [2]; in experiment [3]; on Melanocortin receptor 3) was “Not Active” in each case. Further, the IC50 entry (in experiment [4]; against Carbonic anhydrase 2) was “Not Active” each time. Further, in experiment [2], the Ki entry is “Not Active”.
Consider `COc1ccc2cc([C@H](C)C(=O)O)ccc2c1` [NAPROXEN], for which the half-maximal inhibitory concentration (IC50) result (in experiment [1]; at Calcitonin receptor; at Adenosine receptor A2a (hek293); in experiment [2]; in experiment [3]; at Melanocortin receptor 3) was “Not Active” each time. Also, the 50% inhibitory concentration (IC50) entry (in experiment [4]; at Carbonic anhydrase 2) was “Not Active” in each case. The Ki result in experiment [2] was “Not Active”.
For the compound `CC(C)[C@H]1CC[C@H](C(=O)N[C@H](Cc2ccccc2)C(=O)O)CC1` [NATEGLINIDE], the IC50 entry (in experiment [1]; at Calcitonin receptor; at Adenosine receptor A2a (hek293); in experiment [2]; in experiment [3]; against Melanocortin receptor 3) was “Not Active” in each case. The IC50 result (in experiment [4]; against Carbonic anhydrase 2) was “Not Active” each time. The Ki entry in experiment [2] is reported as “Not Active”.
For `CCN[C@@H]1C[C@H](N)[C@@H](O[C@H]2OC(CN)=CC[C@H]2N)[C@H](O)[C@H]1O[C@H]1OC[C@](C)(O)[C@H](NC)[C@H]1O` [NETILMICIN], the IC50 entry (in experiment [1]; on Calcitonin receptor; at Adenosine receptor A2a (hek293); in experiment [2]; in experiment [3]; at Melanocortin receptor 3) was “Not Active” in each case. Further, the IC50 result (in experiment [4]; at Carbonic anhydrase 2) was “Not Active” throughout. Besides, the Ki entry in experiment [2] was “Not Active”.
Turning to `COC(=O)C1=C(C)NC(C)=C(C(=O)OCC(C)C)C1c1ccccc1[N+](=O)[O-]` (stereo unspecified) [NISOLDIPINE], the IC50 result in experiment [1] is “Not Active”; at Calcitonin receptor it was “Not Active”; on Adenosine receptor A2a (read-out: IC50), 4.06 µM; in experiment [2], “Not Active”; in experiment [3], “Not Active”; against Melanocortin receptor 3, “Not Active”. The half-maximal inhibitory concentration (IC50) result (in experiment [4]; against Carbonic anhydrase 2) was “Not Active” each time. For the same compound, the results for the Ki (on Adenosine receptor A2a (read-out: Ki); in experiment [2]) were 2.28 µM and “Not Active”, respectively.
In the case of `CCOC(=O)C1=C(C)NC(C)=C(C(=O)OC)C1c1cccc([N+](=O)[O-])c1` (stereo unspecified) [NITRENDIPINE], the IC50 entry (in experiment [1]; at Calcitonin receptor; on Adenosine receptor A2a (hek293); in experiment [2]; in experiment [3]; against Melanocortin receptor 3) was “Not Active” throughout. Further, the IC50 entry (in experiment [4]; on Carbonic anhydrase 2) was “Not Active” in each case. Moreover, the Ki entry in experiment [2] was “Not Active”.
Regarding `C#C[C@]1(OC(C)=O)CC[C@H]2[C@@H]3CCC4=CC(=O)CC[C@@H]4[C@H]3CC[C@@]21C` [NORETHINDRONE ACETATE], the IC50 entry (in experiment [1]; on Calcitonin receptor; on Adenosine receptor A2a (hek293); in experiment [2]; in experiment [3]; on Melanocortin receptor 3) was “Not Active” in each case. Besides, the IC50 result (in experiment [4]; on Carbonic anhydrase 2) was “Not Active” in each case. Further, the Ki result in experiment [2] is “Not Active”.

Values taken from ChEMBL document CHEMBL1909046, “DrugMatrix in vitro pharmacology data”.
